“Also recorded” adds a separate entry of the source.
Legend:
group 2 ATRT cell lines = assay: MTS cell viability assay on group 2 ATRT cell lines; type: cell-based, human; conditions: for changes in growth / sensitivity: group 2 cell lines (SH, CHLA06, BT16, BT12), epigenetic inhibitors
Protocol: (§1) ATRT cell line CHLA02 (ATCC, Cat #CRL-3020), CHLA04 (ATCC, Cat #CRL-3036) were cultured according to the manufacturer's protocol. CHLA05 and CHLA06 cells, which were derived from primary ATRTs by Dr. Anat Erdreich-Epstein from the Children's Hospital of Los Angeles, were cultured in DMEM/F12 supplemented with 20 ng/mL FGF, 20 ng/mL EGF, and 1× B27 supplement. SH cells were obtained from Dr. Shih Hwa Choiu at Taipei Veterans General Hospital and was cultured as previously described (Kao et al., 2005). BT12 and BT16, which were kind gifts from Dr. Peter Houghton at Nationalwide Children's Hospital, were cultured in RPMI-1640 supplemented with 10% FBS. ATRT 78C cells was established from a corresponding primary ATRT (T13; diagnosed at The Hospital for Sick Children) and cultured in Neurobasal medium supplemented with 75 ng/mL BSA, 10 ng/mL FGF1, 10 ng/mL EGF, 2 ug/mL Heparin, 1× B27 and 1× N2 supplements. CHLA266 was grown in IMEM media with 10% FBS and 1× ITS. G401 (ATCC, Cat #CRL-1441) was grown in McCoy's 5A media with 10% FBS.
(§2) To assess effects of NOTCH and BMP signaling on ATRT cell phenotypes, cells were treated with N-[N-(3,5-Difluorophenacetyl)-L-alanyl]-S-phenylglycine t-butyl ester (DAPT; EMD Chemicals, Germany, Cat #565770) or Dorsomorphin (DM; Sigma-Aldrich, USA, Cat #P5499) and analyzed using MTS assays for cell viability. […] For epigenomic drug screening experiments, conditions were set up identically with the exception of absorbance readings being taken at 3 and 7 days post-treatment. Cell viability was determined based on mean cell absorbance at 492 nm.

group 1 ATRT cell lines = assay: MTS cell viability assay on group 1 ATRT cell lines; type: cell-based, human; conditions: for growth inhibitory effects / sensitivity: epigenetic inhibitors
Protocol: as §1, §2

[1] = system: G401, a cell line derived from a renal rhabdoid tumor; assay: Growth of G401 renal rhabdoid tumor cell line; type: cell-based, human; conditions: data not shown
Protocol: as §1

NOTCH signaling = assay: Western blot and qRT-PCR analyses of NOTCH signaling in group 1 ATRT cell lines; type: cell-based, human; conditions: group 1 cell lines 78C, CHLA02, CHLA05
Protocol: Nuclear and whole cell lysates were prepared using cytosol lysis buffer or nuclear buffer F (Sommer et al., 1998) respectively and immunoblotted with antibodies to SMARCB1/BAF47 (BD Biosciences, USA, Cat #612110), cleaved NOTCH1 (Cell Signaling, USA, Cat #2421S), pSMAD1/5 (Cell Signaling, USA, Cat #95165), SMAD1 (Cell Signaling, USA, Cat #9743S) or a-Tubulin (Sigma-Aldrich, USA, Cat #T9026) as per standard methods. Phospho-PDGFRβ P70 was obtained from Santa Cruz Biotechnology (Santa Cruz, Calif. USA, Cat #sc-12909-R). BAF47 immuno-staining of tumor samples was performed by the Hospital for Sick Children Pathology Department (Toronto, ON, Canada) as per standard clinical protocols.
cDNAs were synthesized from high quality RNA using the High Capacity cDNA Reverse Transcription Kit (Applied Biosystem, Cat #4368814) as per the manufacturer's instructions and qRT-PCR analyses were performed using purchased Taqman probes and the TaqMan® Gene Expression Master Mix (Invitrogen) (BAMBI, SOST, BCR [exon2, 8, 16, 18, 21, 23], RGL4, CHCHD10, MMP11, SMARCB1 [exon 2, 5]). A subset of analyses was performed with Platinum SYBR Green qPCR reagent kit (Invitrogen) as per the manufacturer's protocol with in-house designed primers to amplify invariant exons (HES1, HES5). […] Synthesized cDNA were analysed with gene specific probes using the Platinum SYBR green qPCR reagent kit. […]

[2] = system: group 1 (CHLA02) ATRT cell line; assay: TUNEL assay in group 1 ATRT cell line; type: cell-based, human
Protocol: TUNEL assays were performed using in situ cell death detection kit, Fluorescein, according to manufacturer's instructions (Roche, West Sussex, UK). Pictures were taken at 20× magnification. Percentage of TUNEL positive population was calculated with respect to DAPI-positive cells, in five random fields per cell cultured slide, and averaged as representative population. Fold-changes were obtained by comparing with untreated control. Cell migration and invasive phenotypes of ATRT cell lines was assessed using a Transwell Boyden chamber assay according to manufacturer's instructions (BD Science). In brief, 3.5×10^3 cells were seeded onto membranes with 8 μm pores in Boyden chambers, and incubated at 37° C. Membranes were removed after 18 hours and examined at 10× magnification under the microscope. To enumerate the number of cells that had invaded and migrated, cell counts from five random fields on the membrane was used to estimate the total number of cells migrated across the transwell membrane.

[3] = cited from earlier work
ATRT cell lines = assay: MTS cell viability screen of epigenetic probes on the whole ATRT cell line panel (4 group 1 and 4 group 2); type: cell-based, human; conditions: 4 group 1 and 4 group 2 cell lines, varying doses
Excerpt: Recent studies have reported promising therapeutic agents targeting a number of epigenetic and signaling pathways in ATRTs (Ginn and Gajjar, 2012), however the relevance of these agents to ATRT sub-types is unknown as these prior studies have examined a very limited number of cell lines. To identify additional ATRT sub-group specific pathways/targets, the effects of 12 small molecule inhibitors/chemical probes targeting epigenetic pathways on growth of 4 group 1 (CHLA266, CHLA04, 02, 05) and 4 group 2 ATRT (SH, CHLA06, BT16 and BT12) cell lines (FIG. 18A) were tested.
as §1, §2

SMILES | changes in growth / sensitivity (group 2 ATRT cell lines; varying doses, MTS) | growth inhibitory effects / sensitivity (group 1 ATRT cell lines; group 1 ATRT cell lines, MTS) | effect on ATRT cell growth across sub-groups (ATRT cell lines) | other results
Cc1cn(-c2cc(NC(=O)c3ccc(C)c(Nc4nccc(-c5cccnc5)n4)c3)cc(C(F)(F)F)c2)cn1 [Nilotinib] |  |  |  | growth / sensitivity to tyrosine kinase inhibitor (group 2 ATRT cell lines; group 2 ATRT cell lines, MTS, 5 days): robustly diminished growth; also recorded: sensitive; growth / sensitivity to tyrosine kinase inhibitor (group 1 ATRT cell lines; group 1 ATRT cell lines, MTS, 5 days): resistant; growth of G401 [1]: robustly inhibit the growth
C[C@H](NC(=O)Cc1cc(F)cc(F)c1)C(=O)N[C@H](C(=O)OC(C)(C)C)c1ccccc1 [DAPT, N-[N-(3,5-difluorophenacetyl)-L-alanyl]-S-phenylglycine t-butyl ester] |  |  |  | cell line growth (cell viability, MTS) (group 2 ATRT cell lines; group 2A/B (SH, CHLA06, BT16), DAPT or DM, varying doses, days 1-5, relative to DMSO): no significant effects on cell growth; also recorded: largely insensitive; cell line growth (cell viability, MTS) (group 1 ATRT cell lines; group 1 (78C, CHLA05, CHLA02), DAPT or DM, varying doses, days 1-5, relative to DMSO): inhibited group 1 and 2 ATRT cell line growth in a dose dependent manner; also recorded: sensitive; NICD expression (NOTCH signaling; Western blot, increasing doses): dose dependent decrease in NICD expression; NOTCH transcriptional targets, HES1 and HESS (NOTCH signaling; qRT-PCR, four days post-treatment): downregulation; cell death / apoptosis (TUNEL) [2]: increased cell death; also recorded: induced apopotosis
Cc1nc(Nc2ncc(C(=O)Nc3c(C)cccc3Cl)s2)cc(N2CCN(CCO)CC2)n1 [Dasatinib] |  |  |  | blood brain permeability [3]: demonstrated blood brain permeability
CCCc1cc(C)[nH]c(=O)c1CNC(=O)c1cc(-c2ccc(N3CCN(C(C)C)CC3)nc2)cc2c1cnn2C(C)C [UNC1999] | 3 of the 4 group 2 cell lines showed no changes in growth and largely insensitive | growth inhibitory effects were observed only in group 1 ATRT cell lines | sub-group specific effect | 
O=C(/C=C/c1ccc(CN(CCO)CCc2c[nH]c3ccccc23)cc1)NO [LAQ824] |  |  | significantly diminished growth of all cell lines; also recorded: no sub-type specific effects | 
Cc1sc2c(c1C)C(c1ccc(Cl)cc1)=N[C@@H](CC(=O)OC(C)(C)C)c1nnc(C)n1-2 [JQ1, (S)-tent-butyl 2-(4-(4-chlorophenyl)-2,3,9-trimethyl-6H-thieno[3,2-f][1,2,4]triazolo[4,3-a][1,4]diazepin-6-yl)acetate] | 3 of the 4 group 2 cell lines showed no changes in growth | growth inhibitory effects were observed only in group 1 ATRT cell lines | sub-group specific effect | 
COc1cc2c(NC3CCN(C(C)C)CC3)nc(C3CCCCC3)nc2cc1OCCCN1CCCC1 [UNC0638] | 3 of the 4 group 2 cell lines showed no changes in growth and largely insensitive | only group 1 ATRT cell lines were sensitive | sub-group specific effect | 
